Measured values from PubChem BioAssay (NCI).
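Interpolation was linear, between the two tested concentrations surrounding the appropriate level; five concentrations were tested over 48 hours in 96-well plates. The concentration for 50% growth inhibition is given as GI50. The concentration for full growth arrest is given as TGI.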

Legend:
Assay in all cases: DTP human tumour cell line panel, 48 h
HT29 colon = system: HT29 colon
NCI-H23 lung = system: NCI-H23 lung
RPMI-8226 leukemia = system: RPMI-8226 leukemia
SK-MEL-5 melanoma = system: SK-MEL-5 melanoma
SNB-19 CNS = system: SNB-19 CNS
SW-620 colon = system: SW-620 colon
TK-10 renal = system: TK-10 renal
UACC-62 melanoma = system: UACC-62 melanoma
ACHN renal = system: ACHN renal
NCI-H226 lung = system: NCI-H226 lung

| SMILES | TGI (HT29 colon) | TGI (NCI-H23 lung) | TGI (RPMI-8226 leukemia) | TGI (SK-MEL-5 melanoma) | TGI (SNB-19 CNS) | TGI (SW-620 colon) | TGI (TK-10 renal) | TGI (UACC-62 melanoma) | TGI (ACHN renal) | TGI (NCI-H226 lung) | GI50 (ACHN renal) | GI50 (HT29 colon) | GI50 (NCI-H226 lung) | GI50 (NCI-H23 lung) | GI50 (RPMI-8226 leukemia) | GI50 (SK-MEL-5 melanoma) | GI50 (SNB-19 CNS) | GI50 (SW-620 colon) | GI50 (UACC-62 melanoma) | GI50 (TK-10 renal) |
| --- | --- | --- | --- | --- | --- | --- | --- | --- | --- | --- | --- | --- | --- | --- | --- | --- | --- | --- | --- | --- |
| COc1cccc(-c2nc(-c3cnccn3)n(Cc3ccccc3)n2)c1 | > 100 µM | > 100 µM | > 100 µM | > 100 µM | > 100 µM | > 100 µM | > 100 µM | > 100 µM | – | – | – | – | – | – | – | – | – | – | – | – |
| CCCCn1/c(=N/C(=S)N(C)C)ss/c1=N\C(=S)N(C)C | > 100 µM | > 100 µM | > 100 µM | – | > 100 µM | > 100 µM | > 100 µM | > 100 µM | > 100 µM | > 100 µM | – | – | – | – | – | – | – | – | – | – |
| CCOC(=O)CCCO | > 100 µM | > 100 µM | > 100 µM | > 100 µM | > 100 µM | > 100 µM | > 100 µM | > 100 µM | > 100 µM | – | – | – | – | – | – | – | – | – | – | – |
| CC1=C[C@@H]2Cc3occc3C(C)(C)[C@@H]2CC1 | 30.3 µM | 57.3 µM | – | 33.1 µM | > 10 µM | 31.8 µM | 45.4 µM | > 10 µM | 29.4 µM | 32.8 µM | – | – | – | – | – | – | – | – | – | – |
| Fc1ccc(-c2nn(-c3ccccc3)cc2-c2nc3ccccc3o2)cc1 | 30.4 µM | 11.7 µM | 9.3 µM | 19.3 µM | 53.1 µM | 36.4 µM | – | 19.6 µM | > 100 µM | 32 µM | 4.1 µM | 9.46 µM | 13.6 µM | 2.26 µM | 1.05 µM | 5.72 µM | 4.82 µM | 3.12 µM | 5.5 µM | – |
| CC(C)(C)C1=NC(S)NC(CCC(=O)Nc2ccccc2[N+](=O)[O-])=C1 (stereo unspecified) | > 100 µM | > 100 µM | – | > 100 µM | > 100 µM | > 100 µM | > 100 µM | > 100 µM | > 100 µM | > 100 µM | – | – | – | – | – | – | – | – | – | – |
| Cc1c(C(=O)/C=C/c2cccc3ccccc23)[n+](=O)c2ccccc2n1[O-] | 24.8 µM | 25.7 µM | 41.8 µM | – | 29.7 µM | 22.7 µM | 34.6 µM | 23.9 µM | 29.4 µM | 27.9 µM | – | – | – | – | – | – | – | – | – | – |
| NC1(CCCCCCCCCCC(=O)O)CNCCNCCNCCNC1 | > 100 µM | > 100 µM | > 100 µM | > 100 µM | 77.6 µM | > 100 µM | > 100 µM | > 100 µM | > 100 µM | – | – | – | – | – | – | – | – | – | – | – |
| Cc1nc2nnc(C)n2c2c1C(=O)Nc1ccccc1N2 | > 100 µM | > 100 µM | > 100 µM | – | > 100 µM | > 100 µM | > 100 µM | > 100 µM | > 100 µM | > 100 µM | – | – | – | – | – | – | – | – | – | – |
| CC1=C(CCCOC(=O)NCCCl)C2=C(C)C3(CC3)[C@@](C)(O)C(=O)C2=C1 | 28.6 µM | 9.17 µM | 40.1 µM | 3.35 µM | > 100 µM | > 100 µM | > 100 µM | 4.96 µM | – | 6.33 µM | – | 3.01 µM | 2.4 µM | 1.83 µM | 8.4 µM | 1.73 µM | 3.83 µM | 24.5 µM | 2.02 µM | 3.55 µM |
| COc1ccc(CNC(=O)COc2ccc(/C=N/Nc3nc4ccccc4s3)cc2)cc1 | – | 12.6 µM | > 100 µM | 5.06 µM | 12.6 µM | > 100 µM | 16.3 µM | 11.8 µM | 3.42 µM | – | 1.67 µM | – | – | 3.05 µM | 2.13 µM | 2.01 µM | 2.69 µM | 5.23 µM | 2.32 µM | 3.49 µM |
| O=S(=O)(O)C(O)/C=C/c1ccccc1 (stereo unspecified) | > 100 µM | > 100 µM | – | > 100 µM | > 100 µM | > 100 µM | > 100 µM | > 100 µM | > 100 µM | > 100 µM | – | – | – | – | – | – | – | – | – | – |
| C[C@]12CCC(=O)C=C1CC[C@@H]1C2CC[C@]2(C)NC(=O)C(C#N)CC12 (stereo partly specified) | > 100 µM | > 100 µM | > 100 µM | > 100 µM | – | > 100 µM | > 100 µM | > 100 µM | > 100 µM | > 100 µM | – | – | – | – | – | – | – | – | – | – |
| O=C(O/N=C1/CCC/C1=C\c1ccccc1)c1ccc([N+](=O)[O-])cc1 | > 100 µM | > 100 µM | > 100 µM | > 100 µM | – | > 100 µM | > 100 µM | > 100 µM | > 100 µM | > 100 µM | – | – | – | – | – | – | – | – | – | – |
| CCOc1ccc2nc(NC(=O)/C(CC(=O)CC(C3=C(O)c4ccccc4CC3=O)c3ccccc3)=N\O)sc2c1 (stereo unspecified) | > 100 µM | > 100 µM | > 100 µM | > 100 µM | > 100 µM | > 100 µM | – | > 100 µM | > 100 µM | > 100 µM | – | – | – | – | – | – | – | – | – | – |
| C/C(=N\NC(N)=S)c1ccc(C)cc1C | > 100 µM | > 100 µM | > 100 µM | > 100 µM | – | > 100 µM | > 100 µM | > 100 µM | > 100 µM | > 100 µM | – | – | – | – | – | – | – | – | – | – |
| COc1cc2c(cc1OC)C1C=NC(C(=O)O)(C2)c2ccccc21 (stereo unspecified) | > 100 µM | > 100 µM | > 100 µM | > 100 µM | > 100 µM | > 100 µM | > 100 µM | > 100 µM | – | > 100 µM | – | – | – | – | – | – | – | – | – | – |
| Cc1cccc2c3ccc4c(c3n(C)c12)C(=O)C=CC4=O | > 100 µM | 57.8 µM | > 100 µM | – | > 100 µM | > 100 µM | > 100 µM | > 100 µM | – | > 100 µM | – | – | – | – | – | – | – | – | – | – |
| c1ccc(-c2nnc(-c3nn(-c4ccccc4)c4nc5ccccc5nc34)o2)cc1 | > 100 µM | > 100 µM | > 100 µM | – | > 100 µM | > 100 µM | > 100 µM | > 100 µM | > 100 µM | 99.5 µM | – | – | – | – | – | – | – | – | – | – |
| O=C(N/N=C/c1cccc(O)c1O)N/N=C/c1cccc(O)c1O | > 100 µM | > 100 µM | 76.8 µM | – | > 100 µM | > 100 µM | > 100 µM | > 100 µM | > 100 µM | 59.5 µM | – | – | – | – | – | – | – | – | – | – |
| CC1(C)N=C(N)N=C(N)N1c1ccc(CCCCc2ccc(S(=O)(=O)F)cc2Cl)c(Cl)c1 | 298 µM | 200 µM | – | 31.7 µM | 125 µM | 360 µM | 231 µM | 46.9 µM | 142 µM | 158 µM | – | – | – | – | – | – | – | – | – | – |
| CCCCCCCCCCCCCCC1OC(=O)c2ccccc21 (stereo unspecified) | > 100 µM | > 100 µM | > 100 µM | – | > 100 µM | > 100 µM | > 100 µM | > 100 µM | > 100 µM | > 100 µM | – | – | – | – | – | – | – | – | – | – |
